Experimental data: patent US20220241311A1, “METHODS AND MATERIALS FOR TREATING GLYCOSYLATION DISORDERS” (priority 2018, published 2022)

Legend:
PGM1-CDG patients = experiment: Open-label prospective study of oral D-gal supplementation: safety and tolerability; format: in vivo, human
Excerpt: The study design was an open-label prospective study. Patients with biochemically and genetically confirmed PGM1 deficiency were recruited into the study. Individuals with an existing diagnosis of aldolase B deficiency, galactosemia, hemolytic uremic syndrome, severe anemia, galactose intolerance, or intellectual disability were excluded from the study. Nine patients were enrolled in the study, five females and four males. Patient age ranged from 19 months to 21 years old at the time of enrollment (mean age 9.75 years). Informed written consent was obtained before the start of study. A primary end-point was to assess the safety and tolerability of oral D-gal supplementation and to identify physiological biomarkers that are responsive to D-gal supplementation in a heterogeneous genetic background. The effect of D-gal in PGM1-CDG patients was also monitored via glycomics. Secondary endpoints were the restoration of the plasma glycan subfractions, monitored via glycomics (Table 3), and normalization of antithrombin III activity and serum alanine transaminase (ALT) levels.
Participants in this pilot study received oral D-gal supplementation, added to the regular diet, over 18 weeks. D-gal (pure and soluble D-galactose powder: D-GALACTOSE or Galaxtra™) was provided as medical food/nutritional supplement. 50 g D-gal equals 5 tablespoons of “powdered sugar”. D-gal was added to a meal once a day. It can be added to any food or drink and has a mildly sweet aftertaste.
The D-gal intake was increased over the study period in increments as follows: weeks 0-6 (T0-T1), 0.5 g/kg per day; weeks 6-12 (T1-T2), 1.0 g/kg per day; weeks 12-18 (T2-T3), 1.5 g/kg per day (FIG. 2). The intake was increased gradually to reach the recommended maximum daily dose with minimal gastrointestinal irritation (diarrhea, stomachache, nausea) and metabolic side effects (presence of urinary galactitol).
Tolerability and side effects of oral D-gal supplementation, based on studies in blood (glucose, lactic acid, ammonia, galactose-1-phosphate) and urine (galactitol excretion), were monitored at every time point.
Dietary assessment, clinical evaluation (general physical examination and anthropometric measurements), and laboratory and biochemical studies were completed every 6 weeks (T0, T1, T2 and T3).
(§1) Liver transaminases (aspartate transaminase (AST) and alanine transaminase (ALT)), creatine kinase (CK), commonly assayed glycoproteins (thyroid stimulating hormone (TSH), thyroxine-binding globulin (TBG), and insulin-like growth factor binding protein 3 (IGF3BP)), and coagulation parameters (Factor IX, Factor XI, activated […] (aPTT), and anti-thrombin III (ATIII)), were measured in blood. Patent 1 had additional Factor XI, and XIII measurements. Serum galactose-1-phosphate and urine galactitol were measured to monitor safety and tolerability of galactose supplementation. Biochemical studies to evaluate changes in glycosylation included isoelectric focusing (IEF) of serum transferrin and glycomic analysis in blood by mass spectrometry.
Electrocardiography/echocardiography and hepatic ultrasonography were conducted at T0 and T3.

ICAM-1 = ICAM-1 Western blotting with galactose supplementation, healthy cells
serum transferrin = experiment: Glycomics / high-resolution mass spectrometry of intact serum transferrin at T0 and T3; format: in vivo, human; settings: for Ratio A-Glyco / DiGlyco transferrin / Ratio Mono-Glyco / DiGlyco transferrin / Ratio Trisialo-Glyco / DiGlyco transferrin: T = 3; for Ratio A-Glyco / DiGlyco transferrin: control range <=0.01040; for Ratio Mono-Glyco / DiGlyco transferrin: control range <=0.02700; for Ratio Trisialo-Glyco / DiGlyco transferrin: control range <=0.031900
Experimental: as §1
Plasma (sodium heparin) or serum was used for glycomics analysis according to the procedure as described elsewhere (see, e.g., van Scherpenzeel et al., 2015 Transl Res 166:639-649.e1). Briefly, a 10 μl serum sample was purified using anti-transferrin beads. The eluate was analyzed on a microfluidic 6540 LC-chip-QTOF instrument (Agilent Technologies) using a C8 protein chip. Data analysis was performed using Agilent Mass Hunter Qualitative Analysis Software B.05.00.
The most abundant peaks in the transferrin mass spectrometry profiles were annotated, and ratios were calculated for the nonglycosylated (A-Glyco), monoglycosylated (Mono-Glyco), and trisialo- (Trisialo-Glyco) transferrin over the normal transferrin peak (tetrasialo; Di-Glyco). Ratios were compared in patient samples before D-gal supplementation and 18 weeks after starting oral supplements according to protocol. An example is shown in FIG. 5 for a severely (patient 2) and a mildly (patient 9) abnormal profile. A-Glyco- and Mono-Glyco ratios were abnormal in all patients. […] The most pronounced improvement was measured in patient 4. In patients 3 and 8, the A-Glyco peak normalized (Table 3, FIG. 6).

Compound: O=C[C@H](O)[C@@H](O)[C@@H](O)[C@H](O)CO [D-gal, D-galactose]
- Serious adverse events (PGM1-CDG patients; 18 weeks oral D-gal): No serious adverse events were reported
- Galactitol excretion in urine (PGM1-CDG patients; during the trial): no patients experiencing increased galactitol excretion in urine
- Adverse events (PGM1-CDG patients; incremental increase in D-gal intake, monitored weekly): Aside from gastroenteritis in patient 2, no clinical or metabolic adverse events
- Galactose-1-phosphate levels (PGM1-CDG patients; patients 1, 2, 3, 5, 7, 9, T2 and T3): no abnormalities were found
- Structural cardiac or liver changes (PGM1-CDG patients; study endpoint): No structural cardiac or liver changes were noted
- Clinical rhabdomyolysis (PGM1-CDG patients; while on galactose supplementation): none of the patients experienced clinical rhabdomyolysis
- ICAM-1 expression (ICAM-1): no effect
- Transferrin glycosylation (serum transferrin; 8 patients, type 2 pattern shifting to mild type 1 pattern): Clear improvement
- Ratio A-Glyco / DiGlyco transferrin (serum transferrin; Patient 1): 0.042
- Ratio Mono-Glyco / DiGlyco transferrin (serum transferrin; Patient 1): 0.198
- Ratio Trisialo-Glyco / DiGlyco transferrin (serum transferrin; Patient 1): 0.0778
- Ratio A-Glyco / DiGlyco transferrin (serum transferrin; Patient 2): 0.046
- Ratio Mono-Glyco / DiGlyco transferrin (serum transferrin; Patient 2): 0.213
- Ratio Trisialo-Glyco / DiGlyco transferrin (serum transferrin; Patient 2): 0.0542
- Ratio A-Glyco / DiGlyco transferrin (serum transferrin; Patient 3): 0.002
- Ratio Mono-Glyco / DiGlyco transferrin (serum transferrin; Patient 3): 0.071
- Ratio Trisialo-Glyco / DiGlyco transferrin (serum transferrin; Patient 3): 0.0549
- Ratio A-Glyco / DiGlyco transferrin (serum transferrin; Patient 4): 0.314
- Ratio Mono-Glyco / DiGlyco transferrin (serum transferrin; Patient 4): 0.632
- Ratio Trisialo-Glyco / DiGlyco transferrin (serum transferrin; Patient 4): 0.0938
- Ratio A-Glyco / DiGlyco transferrin (serum transferrin; Patient 5): 0.021
- Ratio Mono-Glyco / DiGlyco transferrin (serum transferrin; Patient 5): 0.142
- Ratio Trisialo-Glyco / DiGlyco transferrin (serum transferrin; Patient 5): 0.0740
- Ratio A-Glyco / DiGlyco transferrin (serum transferrin; Patient 6): 0.044
- Ratio Mono-Glyco / DiGlyco transferrin (serum transferrin; Patient 6): 0.293
- Ratio Trisialo-Glyco / DiGlyco transferrin (serum transferrin; Patient 6): 0.0639
- Ratio A-Glyco / DiGlyco transferrin (serum transferrin; Patient 7): 0.108
- Ratio Mono-Glyco / DiGlyco transferrin (serum transferrin; Patient 7): 0.356
- Ratio Trisialo-Glyco / DiGlyco transferrin (serum transferrin; Patient 7): 0.0551
- Ratio A-Glyco / DiGlyco transferrin (serum transferrin; Patient 8 (non-compliant)): 0.003
- Ratio Mono-Glyco / DiGlyco transferrin (serum transferrin; Patient 8 (non-compliant)): 0.081
- Ratio Trisialo-Glyco / DiGlyco transferrin (serum transferrin; Patient 8 (non-compliant)): 0.0712
- Ratio A-Glyco / DiGlyco transferrin (serum transferrin; Patient 9): 0.019
- Ratio Mono-Glyco / DiGlyco transferrin (serum transferrin; Patient 9): 0.127
- Ratio Trisialo-Glyco / DiGlyco transferrin (serum transferrin; Patient 9): 0.0561
- Transferrin glycosylation pattern (serum transferrin; T3): None of the patients showed a normalized pattern
- Transferrin glycosylation (serum transferrin; patient 5): no change was observed
- A-glyco fraction (serum transferrin; patients 3 and 8, 18 weeks): completely normalized
